Results taken from the kinase profiling compilation of Christmann-Franck et al. (2016).

Legend:
Assay in all cases: KINOMEscan competition binding
Conditions in all cases: compound 10.0 µM
CDK19 (human) = CDK19 (human) (UniProt Q9BWU1)
PRKAA1 (human) = PRKAA1 (human) (UniProt Q13131)
MAPK15 (human) = MAPK15 (human) (UniProt Q8TD08)
GSK3B (human) = GSK3B (human) (UniProt P49841)
RPS6KA2 KD1 (human) = RPS6KA2 KD1 (human) (UniProt Q15349)
CaMK1 (human) = CaMK1 (human) (UniProt Q14012)
[1] = test system: ABL1 (human), P00519 [H396P]
PIP4K2B (human) = PIP4K2B (human) (UniProt P78356)
CSNK1G3 (human) = CSNK1G3 (human) (UniProt Q9Y6M4)
WEE1 (human) = WEE1 (human) (UniProt P30291)
KDR (human) = KDR (human) (UniProt P35968)
NEK5 (human) = NEK5 (human) (UniProt Q6P3R8)
NEK5 (human), sequence (Q6P3R8 whole entry, looked up): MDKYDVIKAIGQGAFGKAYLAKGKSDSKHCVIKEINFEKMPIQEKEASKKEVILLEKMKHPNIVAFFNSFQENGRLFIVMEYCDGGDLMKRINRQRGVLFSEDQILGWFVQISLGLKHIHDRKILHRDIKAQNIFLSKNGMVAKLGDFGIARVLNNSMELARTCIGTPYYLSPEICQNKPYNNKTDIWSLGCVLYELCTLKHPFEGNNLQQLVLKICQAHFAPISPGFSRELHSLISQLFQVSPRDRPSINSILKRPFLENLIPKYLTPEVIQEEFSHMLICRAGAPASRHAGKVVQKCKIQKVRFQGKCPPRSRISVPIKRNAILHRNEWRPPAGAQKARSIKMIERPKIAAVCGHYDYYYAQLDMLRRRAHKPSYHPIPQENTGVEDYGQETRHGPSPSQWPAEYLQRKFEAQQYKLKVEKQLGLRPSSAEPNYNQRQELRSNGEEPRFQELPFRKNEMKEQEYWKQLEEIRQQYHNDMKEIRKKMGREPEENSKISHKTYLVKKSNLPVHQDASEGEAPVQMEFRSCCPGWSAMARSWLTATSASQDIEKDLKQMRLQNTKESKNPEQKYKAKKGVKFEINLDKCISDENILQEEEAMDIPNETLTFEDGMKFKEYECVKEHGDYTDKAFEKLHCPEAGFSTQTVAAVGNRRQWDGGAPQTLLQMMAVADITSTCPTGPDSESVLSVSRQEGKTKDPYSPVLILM

CAMK4 (human) = CAMK4 (human) (UniProt Q16566)
CAMK4 (human), sequence (Q16566 whole entry, looked up): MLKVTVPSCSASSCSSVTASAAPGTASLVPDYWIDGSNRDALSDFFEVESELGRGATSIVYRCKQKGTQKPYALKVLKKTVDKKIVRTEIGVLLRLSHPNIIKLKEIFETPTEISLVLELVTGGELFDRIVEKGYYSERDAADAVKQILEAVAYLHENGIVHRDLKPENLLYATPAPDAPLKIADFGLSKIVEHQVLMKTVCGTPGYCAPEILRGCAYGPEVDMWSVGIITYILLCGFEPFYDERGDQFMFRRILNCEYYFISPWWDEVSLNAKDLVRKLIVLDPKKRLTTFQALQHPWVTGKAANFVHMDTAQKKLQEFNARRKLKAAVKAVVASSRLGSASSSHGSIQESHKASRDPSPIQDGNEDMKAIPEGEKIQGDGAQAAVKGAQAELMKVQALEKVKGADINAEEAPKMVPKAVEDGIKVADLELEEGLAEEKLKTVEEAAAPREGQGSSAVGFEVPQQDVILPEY

ANKK1 (human) = ANKK1 (human) (UniProt Q8NFD2)
TXK (human) = TXK (human) (UniProt P42681)
TXK (human), sequence (P42681 whole entry, looked up): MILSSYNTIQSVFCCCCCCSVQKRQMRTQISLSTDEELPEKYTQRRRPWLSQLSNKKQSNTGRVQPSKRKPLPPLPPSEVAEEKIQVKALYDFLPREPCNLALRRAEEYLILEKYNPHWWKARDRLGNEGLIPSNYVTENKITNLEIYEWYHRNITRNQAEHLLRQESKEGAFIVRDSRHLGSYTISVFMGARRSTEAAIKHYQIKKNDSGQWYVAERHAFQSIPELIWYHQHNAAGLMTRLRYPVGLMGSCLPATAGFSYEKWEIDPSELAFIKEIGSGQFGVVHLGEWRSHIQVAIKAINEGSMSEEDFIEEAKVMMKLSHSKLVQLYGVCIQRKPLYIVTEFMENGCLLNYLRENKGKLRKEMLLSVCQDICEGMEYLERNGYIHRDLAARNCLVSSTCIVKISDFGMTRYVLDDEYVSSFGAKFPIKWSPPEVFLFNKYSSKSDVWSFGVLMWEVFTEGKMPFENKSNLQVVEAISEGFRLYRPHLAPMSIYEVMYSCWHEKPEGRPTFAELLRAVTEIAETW

MYLK3 (human) = MYLK3 (human) (UniProt Q32MK0)
MAPK4 (human) = MAPK4 (human) (UniProt P31152)
MAPK4 (human), sequence (P31152 whole entry, looked up): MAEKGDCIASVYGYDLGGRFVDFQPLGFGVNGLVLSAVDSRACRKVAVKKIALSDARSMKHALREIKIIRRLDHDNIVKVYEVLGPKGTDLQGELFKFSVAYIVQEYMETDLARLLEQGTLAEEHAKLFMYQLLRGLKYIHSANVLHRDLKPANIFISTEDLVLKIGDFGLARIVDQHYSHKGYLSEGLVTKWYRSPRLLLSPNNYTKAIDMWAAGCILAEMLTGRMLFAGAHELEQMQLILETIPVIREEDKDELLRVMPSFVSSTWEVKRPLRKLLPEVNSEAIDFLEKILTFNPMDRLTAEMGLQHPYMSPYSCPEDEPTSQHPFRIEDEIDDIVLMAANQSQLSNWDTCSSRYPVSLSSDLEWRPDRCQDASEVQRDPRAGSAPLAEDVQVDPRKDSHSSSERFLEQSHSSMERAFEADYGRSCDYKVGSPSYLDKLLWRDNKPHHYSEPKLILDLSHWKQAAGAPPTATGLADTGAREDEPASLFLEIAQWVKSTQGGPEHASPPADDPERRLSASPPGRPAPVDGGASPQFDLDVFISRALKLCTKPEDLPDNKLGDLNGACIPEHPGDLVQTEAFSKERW

MYLK2 (human) = MYLK2 (human) (UniProt Q9H1R3)
MYLK2 (human), sequence (Q9H1R3 whole entry, looked up): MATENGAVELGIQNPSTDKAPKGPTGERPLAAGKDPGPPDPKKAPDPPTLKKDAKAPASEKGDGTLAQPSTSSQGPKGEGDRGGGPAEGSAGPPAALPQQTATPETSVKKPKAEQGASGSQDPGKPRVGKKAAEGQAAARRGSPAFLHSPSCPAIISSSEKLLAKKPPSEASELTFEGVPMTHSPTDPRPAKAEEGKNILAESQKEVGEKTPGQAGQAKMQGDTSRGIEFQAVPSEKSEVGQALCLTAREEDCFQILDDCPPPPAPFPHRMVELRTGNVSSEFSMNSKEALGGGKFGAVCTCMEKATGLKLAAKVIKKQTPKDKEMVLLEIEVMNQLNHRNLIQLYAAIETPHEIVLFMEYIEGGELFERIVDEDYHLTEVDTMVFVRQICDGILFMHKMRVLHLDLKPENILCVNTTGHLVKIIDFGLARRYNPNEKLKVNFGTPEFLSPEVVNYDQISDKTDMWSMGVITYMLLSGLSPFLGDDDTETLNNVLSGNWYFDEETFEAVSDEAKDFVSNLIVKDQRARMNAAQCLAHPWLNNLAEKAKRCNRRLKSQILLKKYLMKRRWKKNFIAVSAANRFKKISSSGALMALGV

PDGFRA (human) = PDGFRA (human) (UniProt P16234)
FLT3 (human) = FLT3 (human) (UniProt P36888)
NEK2 (human) = NEK2 (human) (UniProt P51955)
TGFBR1 (human) = TGFBR1 (human) (UniProt P36897)
TGFBR1 (human), sequence (P36897 whole entry, looked up): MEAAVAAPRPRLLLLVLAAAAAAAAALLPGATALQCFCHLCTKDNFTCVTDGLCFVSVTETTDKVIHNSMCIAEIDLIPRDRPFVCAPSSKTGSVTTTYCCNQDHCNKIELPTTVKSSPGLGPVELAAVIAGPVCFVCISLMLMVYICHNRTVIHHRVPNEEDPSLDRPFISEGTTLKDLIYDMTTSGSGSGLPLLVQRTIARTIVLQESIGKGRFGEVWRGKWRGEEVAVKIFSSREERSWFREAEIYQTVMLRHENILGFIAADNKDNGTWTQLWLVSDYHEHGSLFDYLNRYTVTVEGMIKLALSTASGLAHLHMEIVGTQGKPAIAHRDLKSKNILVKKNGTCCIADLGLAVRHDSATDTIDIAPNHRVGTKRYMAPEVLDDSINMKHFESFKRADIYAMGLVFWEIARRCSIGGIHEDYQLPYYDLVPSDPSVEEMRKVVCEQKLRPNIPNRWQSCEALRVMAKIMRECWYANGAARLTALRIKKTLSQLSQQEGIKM

RPS6KA2 KD2 (human) = RPS6KA2 KD2 (human) (UniProt Q15349)
ABL1 (human) = ABL1 (human) (UniProt P00519)
BTK (human) = BTK (human) (UniProt Q06187)
EPHB4 (human) = EPHB4 (human) (UniProt P54760)
EPHB4 (human), sequence (P54760 whole entry, looked up): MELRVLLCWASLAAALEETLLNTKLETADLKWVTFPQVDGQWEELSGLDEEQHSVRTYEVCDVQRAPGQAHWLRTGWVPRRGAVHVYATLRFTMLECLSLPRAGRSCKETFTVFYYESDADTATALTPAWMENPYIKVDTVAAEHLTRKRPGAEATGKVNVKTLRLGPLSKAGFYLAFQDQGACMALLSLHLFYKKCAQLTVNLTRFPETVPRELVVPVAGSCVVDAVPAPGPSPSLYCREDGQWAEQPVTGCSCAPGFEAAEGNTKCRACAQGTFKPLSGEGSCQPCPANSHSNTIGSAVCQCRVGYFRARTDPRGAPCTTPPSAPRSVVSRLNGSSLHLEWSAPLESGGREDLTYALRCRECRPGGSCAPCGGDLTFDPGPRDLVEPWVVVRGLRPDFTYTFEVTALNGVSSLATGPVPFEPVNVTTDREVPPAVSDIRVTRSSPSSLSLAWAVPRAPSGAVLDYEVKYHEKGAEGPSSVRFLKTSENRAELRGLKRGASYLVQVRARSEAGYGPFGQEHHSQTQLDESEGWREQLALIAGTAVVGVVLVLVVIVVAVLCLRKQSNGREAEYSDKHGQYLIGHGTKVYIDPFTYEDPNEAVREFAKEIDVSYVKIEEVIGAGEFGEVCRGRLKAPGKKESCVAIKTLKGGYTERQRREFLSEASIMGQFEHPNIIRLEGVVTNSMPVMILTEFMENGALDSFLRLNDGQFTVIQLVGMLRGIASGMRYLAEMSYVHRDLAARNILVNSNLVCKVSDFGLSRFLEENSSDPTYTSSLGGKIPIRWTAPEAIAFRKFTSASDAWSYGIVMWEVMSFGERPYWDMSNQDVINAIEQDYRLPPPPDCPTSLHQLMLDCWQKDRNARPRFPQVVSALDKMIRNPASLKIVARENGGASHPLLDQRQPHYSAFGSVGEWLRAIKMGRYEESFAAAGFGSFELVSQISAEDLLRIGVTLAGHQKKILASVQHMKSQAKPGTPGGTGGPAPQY

BMPR1A (human) = BMPR1A (human) (UniProt P36894)
EIF2AK2 (human) = EIF2AK2 (human) (UniProt P19525)
MAP4K3 (human) = MAP4K3 (human) (UniProt Q8IVH8)
MYLK4 (human) = MYLK4 (human) (UniProt Q86YV6)
MYLK4 (human), sequence (Q86YV6 whole entry, looked up): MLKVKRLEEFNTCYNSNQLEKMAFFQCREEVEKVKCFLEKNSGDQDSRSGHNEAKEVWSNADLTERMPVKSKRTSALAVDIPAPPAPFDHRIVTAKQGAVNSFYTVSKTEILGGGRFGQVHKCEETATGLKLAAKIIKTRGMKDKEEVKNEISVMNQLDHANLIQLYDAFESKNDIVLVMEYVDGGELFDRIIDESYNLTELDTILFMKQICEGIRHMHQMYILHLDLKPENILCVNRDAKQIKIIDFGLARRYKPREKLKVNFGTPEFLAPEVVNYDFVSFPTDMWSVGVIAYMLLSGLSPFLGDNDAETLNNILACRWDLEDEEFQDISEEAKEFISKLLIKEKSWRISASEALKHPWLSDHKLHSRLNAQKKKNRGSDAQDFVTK

[2] = test system: EGFR (human), P00533 [747-751 del / S ins]
[3] = test system: EGFR (human), P00533 [T790M]
CDK4 CCND1 (human) = CDK4 CCND1 (human) (UniProt P11802+P24385)
ERN1 (human) = ERN1 (human) (UniProt O75460)
OXSR1 (human) = OXSR1 (human) (UniProt O95747)
HIPK2 (human) = HIPK2 (human) (UniProt Q9H2X6)
NIM1 (human) = NIM1 (human) (UniProt Q8IY84)

| Compound | kinase still bound, per cent of control (CDK19 (human)) [%] | kinase still bound, per cent of control (PRKAA1 (human)) [%] | kinase still bound, per cent of control (MAPK15 (human)) [%] | kinase still bound, per cent of control (GSK3B (human)) [%] | kinase still bound, per cent of control (RPS6KA2 KD1 (human)) [%] | kinase still bound, per cent of control (CaMK1 (human)) [%] | kinase still bound, per cent of control (PIP4K2B (human)) [%] | kinase still bound, per cent of control (CSNK1G3 (human)) [%] | kinase still bound, per cent of control (WEE1 (human)) [%] | kinase still bound, per cent of control (KDR (human)) [%] | kinase still bound, per cent of control (NEK5 (human)) [%] | kinase still bound, per cent of control (CAMK4 (human)) [%] | kinase still bound, per cent of control (ANKK1 (human)) [%] | kinase still bound, per cent of control (TXK (human)) [%] | kinase still bound, per cent of control (MYLK3 (human)) [%] | kinase still bound, per cent of control (MAPK4 (human)) [%] | kinase still bound, per cent of control (MYLK2 (human)) [%] | kinase still bound, per cent of control (PDGFRA (human)) [%] | kinase still bound, per cent of control (FLT3 (human)) [%] | kinase still bound, per cent of control (NEK2 (human)) [%] | also measured |
| --- | --- | --- | --- | --- | --- | --- | --- | --- | --- | --- | --- | --- | --- | --- | --- | --- | --- | --- | --- | --- | --- |
| Cc1n[nH]c2ccc(-c3cncc(OC[C@@H](N)Cc4c[nH]c5ccccc45)c3)cc12 | 0.5 | 100 | 0 | 1 | 29 | 33 | 5.4 | 0.15 | 100 | 100 | 100 | 12 | 100 | 100 | 2.8 | 100 | 100 | 100 | 4.5 | 100 | kinase still bound, per cent of control [1]: 100%; kinase still bound, per cent of control (TGFBR1 (human)): 100%; kinase still bound, per cent of control (RPS6KA2 KD2 (human)): 100%; kinase still bound, per cent of control (ABL1 (human)): 100%; kinase still bound, per cent of control (BTK (human)): 100%; kinase still bound, per cent of control (EPHB4 (human)): 100%; kinase still bound, per cent of control (BMPR1A (human)): 100%; kinase still bound, per cent of control (EIF2AK2 (human)): 100%; kinase still bound, per cent of control (MAP4K3 (human)): 9.5%; kinase still bound, per cent of control (MYLK4 (human)): 3% |
| CNC(=O)c1ccc(Nc2cc(Nc3ccccc3S(=O)(=O)C(C)C)c3cc[nH]c3n2)nc1 | 100 | 4.6 | 8 | 100 | 1.8 | 100 | 3.8 | 22 | 100 | 100 | 100 | 100 | 100 | 33 | 100 | 100 | 100 | 100 | 2.4 | 100 | kinase still bound, per cent of control [1]: 10%; kinase still bound, per cent of control (TGFBR1 (human)): 100%; kinase still bound, per cent of control (RPS6KA2 KD2 (human)): 100%; kinase still bound, per cent of control (ABL1 (human)): 11%; kinase still bound, per cent of control (BTK (human)): 0.65%; kinase still bound, per cent of control (EPHB4 (human)): 100%; kinase still bound, per cent of control (BMPR1A (human)): 100%; kinase still bound, per cent of control [2]: 100%; kinase still bound, per cent of control (EIF2AK2 (human)): 100%; kinase still bound, per cent of control (MAP4K3 (human)): 1%; kinase still bound, per cent of control (MYLK4 (human)): 100% |
| C=CC(=O)Nc1ccc(CN(C(=O)Nc2c(Cl)c(OC)cc(OC)c2Cl)c2cc(Nc3ccc(N4CCN(C)CC4)cc3)ncn2)cc1 | 100 | 100 | 100 | 100 | 100 | 100 | 100 | 100 | 100 | 0.45 | 100 | 100 | 100 | 16 | 100 | 100 | 100 | 2.2 | 6 | 100 | kinase still bound, per cent of control [1]: 20%; kinase still bound, per cent of control (TGFBR1 (human)): 100%; kinase still bound, per cent of control (RPS6KA2 KD2 (human)): 100%; kinase still bound, per cent of control (ABL1 (human)): 16%; kinase still bound, per cent of control (BTK (human)): 1.2%; kinase still bound, per cent of control (EPHB4 (human)): 100%; kinase still bound, per cent of control (BMPR1A (human)): 100%; kinase still bound, per cent of control [2]: 0.65%; kinase still bound, per cent of control (EIF2AK2 (human)): 100%; kinase still bound, per cent of control (MAP4K3 (human)): 7.4%; kinase still bound, per cent of control (MYLK4 (human)): 100% |
| CCN(CC)CCCCNc1ncc2cc(-c3cc(OC)cc(OC)c3)c(NC(=O)NC(C)(C)C)nc2n1 | 100 | 100 | 100 | 100 | 100 | 100 | 100 | 100 | 100 | 21 | 100 | 100 | 100 | 100 | 100 | 100 | 100 | 100 | 100 | 100 | kinase still bound, per cent of control [1]: 100%; kinase still bound, per cent of control (TGFBR1 (human)): 100%; kinase still bound, per cent of control (RPS6KA2 KD2 (human)): 100%; kinase still bound, per cent of control (ABL1 (human)): 100%; kinase still bound, per cent of control (BTK (human)): 100%; kinase still bound, per cent of control (EPHB4 (human)): 100%; kinase still bound, per cent of control (EIF2AK2 (human)): 24%; kinase still bound, per cent of control (MAP4K3 (human)): 100%; kinase still bound, per cent of control (MYLK4 (human)): 100% |
| COc1ccc(N(C(=O)Oc2c(C)cccc2C)c2ccnc(Nc3ccc(N4CCN(C)CC4)cc3)n2)c(OC)c1 | 100 | 23 | 76 | 72 | 27 | 83 | 5.4 | 87 | 85 | 15 | 85 | 100 | 100 | 0.45 | 100 | 100 | 0.95 | 9.9 | 2.3 | 100 | kinase still bound, per cent of control [3]: 2.2%; kinase still bound, per cent of control (CDK4 CCND1 (human)): 5.4%; kinase still bound, per cent of control (ERN1 (human)): 62%; kinase still bound, per cent of control (OXSR1 (human)): 93%; kinase still bound, per cent of control (TGFBR1 (human)): 0.75%; kinase still bound, per cent of control (HIPK2 (human)): 100%; kinase still bound, per cent of control (RPS6KA2 KD2 (human)): 78%; kinase still bound, per cent of control (BTK (human)): 1.3%; kinase still bound, per cent of control (EPHB4 (human)): 0%; kinase still bound, per cent of control (NIM1 (human)): 100%; kinase still bound, per cent of control (BMPR1A (human)): 0.1%; kinase still bound, per cent of control [2]: 0%; kinase still bound, per cent of control (EIF2AK2 (human)): 92%; kinase still bound, per cent of control (MAP4K3 (human)): 1.4%; kinase still bound, per cent of control (MYLK4 (human)): 100% |
